In patent US7008636B2, “2,3,5-substituted biphenyls useful in the treatment of insulin resistance and hyperglycemia” (Wyeth, priority 1998, dated 2006) one finds IC50 and melting point data, which are given here for 30 compounds.

Where only a bound is given, the exact number is not on record here.

For the first data set, the target named is T1, recombinant, human protein tyrosine phosphatase (PTP) 1B (hPTP1B) (Homo sapiens, UniProt P18031).
T1 construct: made in house
T1 sequence (P18031 1-435): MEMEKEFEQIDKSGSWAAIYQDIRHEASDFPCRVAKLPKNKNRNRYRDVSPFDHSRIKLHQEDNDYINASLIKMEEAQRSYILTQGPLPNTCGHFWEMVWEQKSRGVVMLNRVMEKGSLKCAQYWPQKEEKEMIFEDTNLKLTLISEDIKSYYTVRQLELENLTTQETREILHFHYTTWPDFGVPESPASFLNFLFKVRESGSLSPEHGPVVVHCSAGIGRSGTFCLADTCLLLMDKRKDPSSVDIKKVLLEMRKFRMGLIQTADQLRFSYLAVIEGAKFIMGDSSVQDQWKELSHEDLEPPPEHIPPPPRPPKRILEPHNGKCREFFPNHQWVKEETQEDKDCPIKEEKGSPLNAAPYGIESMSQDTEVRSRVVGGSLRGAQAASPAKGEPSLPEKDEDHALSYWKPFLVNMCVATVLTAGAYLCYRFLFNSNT
As to the kind of experiment: Inhibition of tri-phosphorylated insulin receptor dodecaphosphopeptide dephosphorylation by hPTP1B. In kind it is biochemical. To be noted: 50 μM IR triphosphopeptide substrate, 5 min preincubation and 5 min reaction at 37° C., malachite green-ammonium molybdate phosphate detection.
Regarding `CCCCCCCCCCCCNC(=O)c1cc(-c2ccccc2)c(OCC(=O)O)c(-c2ccccc2)c1` [Example 8, (5′-Dodecylcarbamoyl-[1,1′;3′,1″]terphenyl-2′-yloxy)-acetic acid], the IC50 was determined as 195 nM. Regarding `CCCCCCCCCCCCNC(=O)c1cc(-c2ccc(OC)cc2)c(OCC(=O)O)c(-c2ccc(OC)cc2)c1` [Example 9, (5′-Dodecylcarbamoyl-4,4″-dimethoxy-[1,1′;3′,1″]terphenyl-2′-yloxy)-acetic acid], the 50% inhibitory concentration (IC50) is 165 nM.

System in a further data set: not given
Assay: not given
Conditions: not given
In turn, `CCCCCCCCCCCCNC(=O)c1cc(-c2ccccc2)c(OCC(=O)O)c(-c2ccccc2)c1` [Example 8, (5′-Dodecylcarbamoyl-[1,1′;3′,1″]terphenyl-2′-yloxy)-acetic acid] gave a melting point of 150 to 153 °C. Still for that read-out and setting: the same measure for `CCCCCCCCCCCCNC(=O)c1cc(-c2ccc(OC)cc2)c(OCC(=O)O)c(-c2ccc(OC)cc2)c1` [Example 9, (5′-Dodecylcarbamoyl-4,4″-dimethoxy-[1,1′;3′,1″]terphenyl-2′-yloxy)-acetic acid]: 65 to 68 °C. Still for that read-out and setting: the same measure for `O=C(O)COc1c(-c2cccc(Cl)c2)cc(C(=O)N(CCc2ccccc2)Cc2ccccc2)cc1-c1cccc(C(F)(F)F)c1` [Example 57, [5′-(Benzyl-phenethyl-carbamoyl)-3″-chloro-3-trifluoromethyl-[1,1′;3′,1″]terphenyl-2′-yloxy]acetic acid]: > 75 °C (dec.); for `O=C(O)COc1c(-c2cccc(Cl)c2)cc(C(=O)NCCc2ccccn2)cc1-c1cccc(C(F)(F)F)c1` [Example 58, [3″-Chloro-5′-(2-pyridin-2-yl-ethylcarbamoyl)-3-trifluoromethyl-[1,1′;3′,1″]terphenyl-2′-yloxy]acetic acid]: > 92 °C (dec.). Regarding `O=C(O)COc1c(-c2cccc(Cl)c2)cc(C(=O)NCCCc2ccccc2)cc1-c1cccc(C(F)(F)F)c1` [Example 59, [3″-Chloro-5′-(3-phenyl-propylcarbamoyl)-3-trifluoromethyl-[1,1′;3′,1″]terphenyl-2′-yloxy]acetic acid], the melting point was > 106 °C (dec.). Compound `O=C(O)COc1c(-c2cccc(Cl)c2)cc(C(=O)NCCCC2CCCC2)cc1-c1cccc(C(F)(F)F)c1` [Example 61, [3″-Chloro-5′-(3-cyclopentyl-propylcarbamoyl)-3-trifluoromethyl-[1,1′;3′,1″]-terphenyl-2′-yloxy]acetic acid] gave a melting point of 173 to 175 °C. Still for that read-out and setting: the result for `O=C(O)COc1c(Br)cc(C(=O)NCCCC2CCCC2)cc1-c1cccc(Cl)c1` [Example 62, [3-Bromo-3′-chloro-5-(3-cyclopentyl-propylcarbamoyl)-biphenyl-2-yloxy]acetic acid] reads > 135 °C (dec.); that for `O=C(O)COc1c(-c2cccc(Cl)c2)cc(C(=O)NCCc2ccc(Br)cc2)cc1-c1cccc(C(F)(F)F)c1` [Example 63, {5′-[2-(4-Bromo-phenyl)-ethylcarbamoyl]-3″-chloro-3-trifluoromethyl-[1,1′;3′,1″]-terphenyl-2′-yloxy}acetic acid], > 102 °C (dec.); that for `COc1ccc(-c2cc(C(=O)NCCc3ccccn3)cc(-c3cccc(C(F)(F)F)c3)c2OCC(=O)O)cc1` [Example 65, [4″-Methoxy-5′-(2-pyridin-2-yl-ethylcarbamoyl)-3-trifluoromethyl-[1,1′;3′,1″]-terphenyl-2′-yloxy]acetic acid], > 105 °C (dec.). For `COc1ccc(-c2cc(C(=O)NCCCC3CCCC3)cc(-c3cccc(C(F)(F)F)c3)c2OCC(=O)O)cc1` [Example 66, [5′-(3-Cyclopentyl-propylcarbamoyl)-4″-methoxy-3-trifluoromethyl-[1,1′;3′,1″]-terphenyl-2′-yloxy]acetic acid], the melting point is > 114 °C (dec.). The same measure, in the same setting: the same measure for `COc1ccc(-c2cc(C(=O)N(CCc3ccccc3)Cc3ccccc3)cc(-c3cccc(C(F)(F)F)c3)c2OCC(=O)O)cc1` [Example 67, [5′-(Benzyl-phenethyl-carbamoyl)-4″-methoxy-3-trifluoromethyl-[1,1′;3′,1″]-terphenyl-2′-yloxy]acetic acid]: > 82 °C (dec.). Same read-out and setting: the result for `COc1ccc(-c2cc(C(=O)N(CCc3ccccc3)Cc3ccccc3)cc(-c3ccccc3F)c2OCC(=O)O)cc1` [Example 68, [5′-(Benzyl-phenethyl-carbamoyl)-2-fluoro-4″-methoxy-[1,1′;3′,1″]-terphenyl-2′-yloxy]acetic acid] reads > 73 °C (dec.); that for `O=C(O)COc1c(Br)cc(C(=O)N(CCc2ccccc2)Cc2ccccc2)cc1-c1ccccc1F` [Example 69, [5-(Benzylphenethyl-carbamoyl)-3-bromo-2′-fluoro-biphenyl-2-yloxy]acetic acid], > 85 °C (dec.). On the same count and under the same terms, the same measure for `COc1ccc(-c2cc(C(=O)NCCc3ccccn3)cc(-c3ccccc3F)c2OCC(=O)O)cc1` [Example 70, [2-Fluoro-4″-methoxy-5′-(2-pyridin-2-yl-ethylcarbamoyl)-[1,1′;3′,1″]-terphenyl-2′-yloxy]acetic acid]: > 102 °C (dec.). As for `COc1ccc(-c2cc(C(=O)NCCCc3ccccc3)cc(-c3ccccc3F)c2OCC(=O)O)cc1` [Example 71, [2-Fluoro-4″-methoxy-5′-(3-phenyl-propylcarbamoyl)-[1,1′;3′,1″]-terphenyl-2′-yloxy]acetic acid], the melting point was > 89 °C (dec.). The same measure, in the same setting: the same measure for `O=C(O)COc1c(Br)cc(C(=O)NCCc2ccccn2)cc1-c1ccccc1F` [Example 72, [3-Bromo-2′-fluoro-5-(2-pyridin-2-yl-ethylcarbamoyl)-biphenyl-2-yloxy]acetic acid]: > 154 °C (dec.); for `O=C(O)COc1c(Br)cc(C(=O)NCCCc2ccccc2)cc1-c1ccccc1F` [Example 73, [3-Bromo-2′-fluoro-5-(3-phenyl-propylcarbamoyl)-biphenyl-2-yloxy]acetic acid]: > 90 °C (dec.). As for `COc1ccc(-c2cc(C(=O)NCCCC3CCCC3)cc(-c3ccccc3F)c2OCC(=O)O)cc1` [Example 74, [5′-(3-Cyclopentyl-propylcarbamoyl)-2-fluoro-4″-methoxy-[1,1′;3′,1″]-terphenyl-2′-yloxy]acetic acid], the melting point was > 97 °C (dec.).

As for `O=C(O)COc1c(Br)cc(C(=O)NCCCC2CCCC2)cc1-c1ccccc1F` [Example 75, [3-Bromo-5-(3-cyclopentyl-propylcarbamoyl)-2′-fluoro-biphenyl-2-yloxy]acetic acid], the melting point is > 127 °C (dec.). Same read-out and setting: the result for `COc1ccc(-c2cc(C(=O)NCCCCCCCCc3ccccc3)cc(-c3ccccc3F)c2OCC(=O)O)cc1` [Example 76, [2-Fluoro-4″-methoxy-5′-(8-phenyl-octylcarbamoyl)-[1,1′;3′,1″]-terphenyl-2′-yloxy]acetic acid] reads > 84 °C (dec.); that for `O=C(O)COc1c(Br)cc(C(=O)NCCCCCCCCc2ccccc2)cc1-c1ccccc1F` [Example 77, [3-Bromo-2′-fluoro-5-(8-phenyl-octylcarbamoyl)-biphenyl-2-yloxy]acetic acid], > 79 °C (dec.). The same measure, in the same setting: the result for `COc1ccc(-c2cc(C(=O)NCCCCCCc3ccccc3)cc(-c3ccccc3F)c2OCC(=O)O)cc1` [Example 78, [2-Fluoro-4″-methoxy-5′-(6-phenyl-hexylcarbamoyl)-[1,1′;3′,1″]-terphenyl-2′-yloxy]acetic acid] reads > 72 °C (dec.); that for `O=C(O)COc1c(Br)cc(C(=O)NCCCCCCc2ccccc2)cc1-c1ccccc1F` [Example 79, [3-Bromo-2′-fluoro-5-(6-phenyl-hexylcarbamoyl)-biphenyl-2-yloxy]acetic acid], > 84 °C (dec.). On the same count and under the same terms, the result for `CCCCCCCCCCCCNC(=O)c1cc(Br)c(OCCn2cnnn2)c(-c2cccc(OC)c2)c1` [Example 138, 5-Bromo-6-(2-tetrazol-1-yl-ethoxy)-3′-methoxy-biphenyl-3-carboxylic acid dodecylamide] reads 100 to 101 °C; that for `COc1ccc(-c2cc(C(=O)NCCCCCCc3ccccc3)cc(-c3cccc(C(F)(F)F)c3)c2OCC(=O)O)cc1` [Example 157, [4″-Methoxy-5′-(6-phenyl-hexylcarbamoyl)-3-trifluoromethyl-[1,1′;3′,1″]terphenyl-2′-yloxy]acetic acid], 153 to 159 °C; that for `CCCCCCCCCCCCNC(=O)c1cc(Br)c(OCCn2ccnn2)c(-c2cccc(C(F)(F)F)c2)c1` [Example 181, 5-Bromo-6-(2-[1,2,3]triazol-1-yl-ethoxy)-3′-trifluoromethyl-biphenyl-3-carboxylic acid dodecylamide], 70.5 to 72.5 °C.

With `CCCCCCCCCCCCNC(=O)c1cc(Br)c(OCCn2ncnn2)c(-c2cccc(C(F)(F)F)c2)c1` [Example 182, 5-Bromo-6-(2-tetrazol-2-yl-ethoxy)-3′-trifluoromethyl-biphenyl-3-carboxylic acid dodecylamide], the melting point was 75.6 to 76.2 °C. The same measure, in the same setting: the result for `CCCCCCCCCCCCNC(=O)c1cc(Br)c(OCCn2cnnn2)c(-c2cccc(C(F)(F)F)c2)c1` [Example 183, 5-Bromo-6-(2-tetrazol-1-yl-ethoxy)-3′-trifluoromethyl-biphenyl-3-carboxylic acid dodecylamide] reads 91.5 to 92.6 °C; that for `CCCCCCCCCCCCNC(=O)c1cc(Br)c(OCCNC(N)=O)c(-c2cccc(C(F)(F)F)c2)c1` [Example 187, 5-Bromo-3′-trifluoromethyl-6-(2-ureido-ethoxy)-biphenyl-3-carboxylic acid dodecylamide], 122.5 to 125.1 °C.

In turn, `CCCCCCCCCCCCNC(=O)c1cc(Br)c(OCCNC(=O)OC)c(-c2cccc(C(F)(F)F)c2)c1` [Example 188, [2-(3-Bromo-5-dodecylcarbamoyl-3′-trifluoromethyl-biphenyl-2-yloxy)-ethyl]-carbamic acid methyl ester] yielded a melting point of 79.6 to 80.5 °C.
